This is an account of results in patent US6034101A, “Dosage form and method for administering drug” (ALZA Corporation, priority 1997, dated 2000).

One data set concerns school children. Briefly: Clinical study of Example 1: behavior, activity, mathematics scores and acute tolerance in school children (SKAMP, CLAM). It counts as in vivo, human. As to the method: (§1) The CLAM Test is a behavior rating that indicates social conformity or rebellion as developed by Conners, Lonez, and Milch and SKAMP is a rating that also measures behavior as developed by Swanson and reported in Psychopharmacological Bulletin, Vol. 21, pp. 887-890 (1985).
(§2) The effect measurements in this study were: (1) observer ratings on SKAMP scale (during classroom time) and (2) performance on the computerized mathematics test. Each child was tested on the mathematics test before the study began, and based on this pre-test during the study, a mathematics test appropriate for each child's ability was given. The morning and evening parent CLAM assessments were used to identify unusual behaviors. The evening parent CLAM was used to determine the presence of treatment effects in the evening hours, particularly treatment effects on the time the child fell asleep, and whether the child's sleep was interrupted. All of the children also wore an activity monitor (Actigraph) which records the movements of the child throughout the day. The activity (number of movements per minute) is recorded electronically and modeled as a function of the drug effect.
The immediate release tablet and the sustained-release dosage form were compared to a sustained-release dosage form that administered methylphenidate in an ascending profile. The sustained-release ascending profile corresponds to administering 4.2 mg at zero hour, 1.1 mg at 1.5 hours, 1.1 mg at 2 hours, 1.2 mg at 2.5 hours, 1.2 mg at 3.0 hours, 1.3 mg at 3.5 hours, 1.3 mg at 4 hours, 1.5 mg at 4.5 hours, 1.5 mg at 5 hours, 1.8 mg at 5.5 hours, 1.8 mg at 6 hours, and 2.0 mg at 6.5 hours, to produce the sustained-ascending release dotted line profile seen in FIG. 2.
The accompanying figures present the results of the above-described study. In FIGS. 3, 4, and 5, the line with a clear circle denotes a placebo, the dark circle an immediate release dosage form administered twice a day, the dark squares a sustained release nonascending dosage profile, and the clear squares the sustained ascending release profile provided by this invention. The SKAMP Score and CLAM Score were defined earlier in the specification, and the times are as indicated on the figures. FIG. 3 denotes the observed behavior, FIG. 4 denotes the inattention overactivity, and FIG. 5 denotes the combined attention results of the study.

Data set [1] relates to children with attention deficient hyperactivity disorder. Description: Clinical study of Example 2: behavior and combined attention, acquired tolerance in children with attention deficient hyperactivity disorder. It counts as in vivo, human. The conditions noted are these: total 36 mg. Here is the method:
as §1, §2
The results of a clinical study that comprises administering methylphenidate according to two distinct delivery programs are reported in this example. […]

Data set [2] has as its system patients. Briefly: Therapeutic response and acquired tolerance in patients (general statements). As to conditions: sustained-release dosage form with constant plasma concentration; applicant's finding. The class given is in vivo, human.
The subject of data set [3] is patients. The conditions noted are these: cited from earlier work.
For data set [4] the following is noted: immediate release form; cited from earlier work.
Where [5] appears, read: sustained-nonascending dose, 20 mg, vs placebo.

With `COC(=O)C(c1ccccc1)C1CCCCN1` (stereo not shown) [methylphenidate], the “therapeutic effect / tolerance” value with school children (controlled-sustained ascending profile) is “desired therapeutic effect without tolerance”. Moreover, the acute tolerance result in the data set with school children (sustained-nonascending dose, 20 mg) is “development of acute tolerance”. In the data set on school children (setting [5]), the activity entry is on record as “decrease in activity”, the inappropriate behavior entry was “lessening of inappropriate behavior” and the mathematical scores result is on record as “higher mathematical scores”. Besides, in data set [1] (sustained-ascending program, FIG. 7), the “behavior, acquired tolerance” value is “absence of acquired tolerance”. In data set [1] (sustained-ascending release, FIG. 8), the “combined attention, acquired tolerance” value is on record as “essentially free of developed tolerance”. In addition, the “efficacy against acquired tolerance” value in the data set on patients [2] was “lacks efficacy particularly against acquired tolerance”. For the same compound, the tolerance result in the data set with patients [3] (5 mg dose twice a day) is listed as “acquires tolerance”. For the same compound, the “time to development of tolerance” value in the data set with patients [3] (after administration) is given as “within hours”. The acute tolerance entry in the data set with patients [3] (prior art sustained-release nonascending dosage form) is “often develops an acute tolerance”. For the same compound, in data set [4], the half-life result was “short half-life” and the onset result is given as “rapid onset”.
